Laboratory results reported in patent EP4722201A1, “3-PHENYLISOXAZOLINE-5-CARBOXAMIDE COMPOUND, AND PREPARATION METHOD THEREFOR, HERBICIDAL COMPOSITION THEREOF AND USE THEREOF” (Jiangsu Flag Chemical Industry Co., Ltd, priority 2023, dated 2024).

Columns and labels:
Type in all cases: in vivo
Alopecurus japonicus = experiment: Indoor herbicide activity determination, Seed Treatment; pre-emergence (soil spray); settings: for Herbicidal activities, Alopecurus japonicus (inhibition rate class): Dosage 240 g a.i./ha; for Herbicidal activity (inhibition rate class), Alopecurus japonicus: Dosage 120 g a.i./ha
Method in brief: (§1)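 Sow seeds into soil-filled 7 cm pots (sandy, pH 6.1, 1% organic matter) and cover them. Water from beneath, then incubate 24 h in a lit, temperature-controlled chamber. Spray the soil in a traveling tower, let it dry in shade, grow on 21 days, and weigh fresh biomass against controls.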

Lolium multiflorum = experiment: as above; settings: for Herbicidal activities, Lolium multiflorum (inhibition rate class): Dosage 240 g a.i./ha
Method in brief: as §1

Alopecurus myosuroides = experiment: as above; settings: for Herbicidal activities, Alopecurus myosuroides (inhibition rate class): Dosage 240 g a.i./ha
Method in brief: as §1

Eleusine indica = experiment: as above; settings: for Herbicidal activities, Eleusine indica (inhibition rate class): Dosage 240 g a.i./ha; for Herbicidal activity (inhibition rate class), Eleusine indica: Dosage 120 g a.i./ha
Method in brief: as §1

Leptochloa chinensis = experiment: as above; settings: for Herbicidal activities, Leptochloa chinensis (inhibition rate class): Dosage 240 g a.i./ha; for Herbicidal activity (inhibition rate class), Leptochloa chinensis: Dosage 120 g a.i./ha
Method in brief: as §1

Digitaria sanguinalis [1] = experiment: Indoor herbicide activity determination, post-emergence (stem and leaf spray at 2-4 leaf stage); settings: 504 h, determined 21 days later, read-out: Inhibition rate of fresh weight, Digitaria sanguinalis; for inhibition at 60 g/ha: 60 g a.i./ha; for inhibition at 30 g/ha: 30 g a.i./ha
From the text: (§2) The testing method for herbicide activity of the compound of the present invention was as follows:
(§3) Post-emergence: an appropriate quantity of seeds of gramineous weeds (Echinochloa crusgalli, Eleusine indica, Digitaria sanguinalis, Alopecurus japonicus, Beckmannia syzigachne, Leptochloa chinensis, Polypogon fugax, Alopecurus aequalis, Lolium multiflorum, Poa annua, Aegilops tauschii, Avena fatua, Alopecurus myosuroides, Alopecurus japonicus and Alopecurus aequalis), broad-leaved weeds (Eclipta prostrata, Amaranthus retroflexus, Rorippa indica, Malachium aquaticum, Veronica polita, Conyza canadensis, Sesbania cannabina, Sagittariatrifolia and Schoenoplectiella juncoides), and Cyperus iria were sown in plastic pots having a diameter of 7 cm and holes at the bottom and filled with nutrient soil (sandy soil, pH 6.1, organic matter 1%) respectively, the seeds were covered with an appropriate amount of soil after being sown, then the soil was wetted with water from the bottom, the seeds were cultured in a constant-temperature illuminated culture room until a 2-4 leaf stage, and stems and leaves underwent spray treatment. After the treatment, the test materials were placed in a laboratory and cultured in the constant-temperature illuminated culture room after the liquid was naturally dry in the shade, and results were determined 21 days later. Inhibition rate of fresh weight % = (1−(fresh weight of treated plants)/(fresh weight of control plants)) × 100% [formula]

Eclipta prostrata [2] = experiment: as above; settings: 504 h, determined 21 days later, read-out: Inhibition rate of fresh weight, Eclipta prostrata; for inhibition at 60 g/ha: 60 g a.i./ha; for inhibition at 30 g/ha: 30 g a.i./ha
From the text: as §2, §3

Cyperus iria [3] = experiment: as above; settings: 504 h, determined 21 days later, read-out: Inhibition rate of fresh weight, Cyperus iria; for inhibition at 60 g/ha: 60 g a.i./ha; for inhibition at 30 g/ha: 30 g a.i./ha
From the text: as §2, §3

Digitaria sanguinalis [4] = experiment: Indoor herbicide activity determination, Seed Treatment; pre-emergence (soil spray); settings: 60 g a.i./ha, read-out: Herbicidal activities (inhibition rate) Digitaria sanguinalis
Method in brief: as §1

Eclipta prostrata [5] = experiment: as above; settings: 60 g a.i./ha, read-out: Herbicidal activities (inhibition rate) Eclipta prostrata
Method in brief: as §1

Aegilops tauschii = experiment: as above; settings: 60 g a.i./ha, read-out: Herbicidal activities (inhibition rate) Aegilops tauschii
Method in brief: as §1

Cyperus iria [6] = experiment: as above; settings: 60 g a.i./ha, read-out: Herbicidal activities (inhibition rate) Cyperus iria
Method in brief: as §1

| SMILES | Herbicidal activities, Alopecurus japonicus (inhibition rate class) (Alopecurus japonicus) | Herbicidal activities, Lolium multiflorum (inhibition rate class) (Lolium multiflorum) | Herbicidal activities, Alopecurus myosuroides (inhibition rate class) (Alopecurus myosuroides) | Herbicidal activities, Eleusine indica (inhibition rate class) (Eleusine indica) | Herbicidal activities, Leptochloa chinensis (inhibition rate class) (Leptochloa chinensis) | inhibition at 60 g/ha (Digitaria sanguinalis [1]) [%] | inhibition at 60 g/ha (Eclipta prostrata [2]) [%] | inhibition at 60 g/ha (Cyperus iria [3]) [%] | inhibition at 30 g/ha (Digitaria sanguinalis [1]) [%] | inhibition at 30 g/ha (Eclipta prostrata [2]) [%] | inhibition at 30 g/ha (Cyperus iria [3]) [%] | inhibition at 60 g/ha (Digitaria sanguinalis [4]) [%] | Herbicidal activity (inhibition rate class), Alopecurus japonicus (Alopecurus japonicus) | inhibition at 60 g/ha (Eclipta prostrata [5]) [%] | inhibition at 60 g/ha (Aegilops tauschii) [%] | inhibition at 60 g/ha (Cyperus iria [6]) [%] | Herbicidal activity (inhibition rate class), Eleusine indica (Eleusine indica) | Herbicidal activity (inhibition rate class), Leptochloa chinensis (Leptochloa chinensis) | Herbicidal activity (inhibition rate class), Lolium multiflorum (Lolium multiflorum; Dosage 120 g a.i./ha) | Herbicidal activity (inhibition rate class), Alopecurus myosuroides (Alopecurus myosuroides; Dosage 120 g a.i./ha) |
| --- | --- | --- | --- | --- | --- | --- | --- | --- | --- | --- | --- | --- | --- | --- | --- | --- | --- | --- | --- | --- |
| C=CC1(C(=O)N[C@H]2C[C@@H](C(=O)O)C2)CC(c2cc(F)cc(Cl)c2)=NO1 (mixture of isomers) [I-27] | A (A indicates that the inhibition rate was greater than or equal to 80% to 100%) | A (A indicates that the inhibition rate was greater than or equal to 80% to 100%) | A (A indicates that the inhibition rate was greater than or equal to 80% to 100%) | A (A indicates that the inhibition rate was greater than or equal to 80% to 100%) | A (A indicates that the inhibition rate was greater than or equal to 80% to 100%) | 80 to 100 | 40 to 60 | 80 to 100 |  |  |  |  |  |  |  |  |  |  |  |  |
| C=CC1(C(=O)N[C@H]2C[C@@H](C(=O)OC)C2)CC(c2cc(F)cc(Cl)c2)=NO1 (mixture of isomers) [I-29] | A (A indicates that the inhibition rate was greater than or equal to 80% to 100%) | A (A indicates that the inhibition rate was greater than or equal to 80% to 100%) | A (A indicates that the inhibition rate was greater than or equal to 80% to 100%) | A (A indicates that the inhibition rate was greater than or equal to 80% to 100%) | A (A indicates that the inhibition rate was greater than or equal to 80% to 100%) | 80 to 100 | 40 to 60 | 80 to 100 |  |  |  |  |  |  |  |  |  |  |  |  |
| C=CC1(C(=O)N[C@H]2C[C@@H](C(=O)O)C2)CC(c2cc(Cl)cc(Cl)c2)=NO1 (mixture of isomers) [I-37] | A (A indicates that the inhibition rate was greater than or equal to 80% to 100%) | A (A indicates that the inhibition rate was greater than or equal to 80% to 100%) | A (A indicates that the inhibition rate was greater than or equal to 80% to 100%) | A (A indicates that the inhibition rate was greater than or equal to 80% to 100%) | A (A indicates that the inhibition rate was greater than or equal to 80% to 100%) | 80 to 100 | 60 to 80 | 80 to 100 |  |  |  |  |  |  |  |  |  |  |  |  |
| C=CC1(C(=O)N[C@H]2C[C@@H](C(=O)OC)C2)CC(c2cc(Cl)cc(Cl)c2)=NO1 (mixture of isomers) [I-39] | A (A indicates that the inhibition rate was greater than or equal to 80% to 100%) | A (A indicates that the inhibition rate was greater than or equal to 80% to 100%) | A (A indicates that the inhibition rate was greater than or equal to 80% to 100%) | A (A indicates that the inhibition rate was greater than or equal to 80% to 100%) | A (A indicates that the inhibition rate was greater than or equal to 80% to 100%) | 80 to 100 | 60 to 80 | 80 to 100 |  |  |  |  |  |  |  |  |  |  |  |  |
| C=CC1(C(=O)N[C@H]2C[C@@H](C(=O)OC)C2)CC(c2cc(Cl)cc(C(F)(F)F)c2)=NO1 (mixture of isomers) [I-55] | A (A indicates that the inhibition rate was greater than or equal to 80% to 100%) | A (A indicates that the inhibition rate was greater than or equal to 80% to 100%) | A (A indicates that the inhibition rate was greater than or equal to 80% to 100%) |  | A (A indicates that the inhibition rate was greater than or equal to 80% to 100%) | 60 to 80 | 60 to 80 | 80 to 100 |  |  |  |  |  |  |  |  |  |  |  |  |
| COC(=O)[C@H]1C[C@@H](NC(=O)C2(C(F)(F)F)CC(c3cc(Cl)cc(C(F)(F)F)c3)=NO2)C1 (relative stereo) [I-247] | A (A indicates that the inhibition rate was greater than or equal to 80% to 100%) | A (A indicates that the inhibition rate was greater than or equal to 80% to 100%) | A (A indicates that the inhibition rate was greater than or equal to 80% to 100%) |  | A (A indicates that the inhibition rate was greater than or equal to 80% to 100%) | 80 to 100 | 60 to 80 | 80 to 100 |  |  |  |  |  |  |  |  |  |  |  |  |
| COC(=O)[C@H]1C[C@@H](NC(=O)C2(CF)CC(c3cc(F)cc(F)c3)=NO2)C1 (relative stereo) [I-310] | A (A indicates that the inhibition rate was greater than or equal to 80% to 100%) | A (A indicates that the inhibition rate was greater than or equal to 80% to 100%) | A (A indicates that the inhibition rate was greater than or equal to 80% to 100%) |  | A (A indicates that the inhibition rate was greater than or equal to 80% to 100%) | 80 to 100 | 60 to 80 | 80 to 100 |  |  |  |  |  |  |  |  |  |  |  |  |
| C=C[C@]1(C(=O)N[C@H]2C=C[C@@H](C(=O)O)C2)CC(c2cc(F)cc(F)c2)=NO1 [CK1, reference compound] |  |  |  |  |  |  |  |  | 60 to 80 | < 20 | 60 to 80 |  |  |  |  |  |  |  |  |  |
| C=C[C@]1(C(=O)N[C@H]2C=C[C@@H](C(=O)OC)C2)CC(c2cc(F)cc(F)c2)=NO1 [CK2, reference compound] |  |  |  |  |  |  |  |  | 60 to 80 | 20 to 40 | 60 to 80 |  |  |  |  |  |  |  |  |  |
| C=C[C@]1(C(=O)N[C@H]2C=C[C@@H](C(=O)OC)C2)CC(c2cc(Cl)cc(C(F)(F)F)c2)=NO1 [I-477] |  |  |  |  |  |  |  |  | 60 to 80 |  | 80 to 100 | 60 to 80 | B (B indicates that the inhibition rate was greater than or equal to 60% to less than 80%) | 40 to 60 | 80 to 100 | 60 to 80 | A (A indicates that the inhibition rate was greater than or equal to 80% to 100%) | A (A indicates that the inhibition rate was greater than or equal to 80% to 100%) |  |  |
| C#C[C@@H](C)OC(=O)[C@@H]1C=C[C@H](NC(=O)[C@@]2(C(F)(F)F)CC(c3cc(F)cc(C(F)(F)F)c3)=NO2)C1 [I-521] |  |  |  |  |  |  |  |  |  |  |  | 80 to 100 | A (A indicates that the inhibition rate was greater than or equal to 80% to 100%) | 80 to 100 | 80 to 100 | 80 to 100 | A (A indicates that the inhibition rate was greater than or equal to 80% to 100%) | A (A indicates that the inhibition rate was greater than or equal to 80% to 100%) | A (A indicates that the inhibition rate was greater than or equal to 80% to 100%) | A (A indicates that the inhibition rate was greater than or equal to 80% to 100%) |
